# Data reported in a melting point compilation (Tetko et al.; mined from patent text by program, amines drawn as free bases though some values may be those of a salt).
row,melting point [°C],Structure (SMILES)
1,129 to 130,Cc1cc(C)c2c(c1C)OC(=O)C2c1ccccc1 (centres undefined)
2,145 to 147,CC(C)(C)[Si](C)(C)Oc1ccc2c(c1)CCc1c-2c(=O)oc2cc(O[Si](C)(C)C(C)(C)C)ccc12
3,108 to 109,CCOC(=O)C1CCc2c(C)c(O)c(C)c(C)c2O1 (centres undefined)
4,203 to 205,Cc1cn(-c2cccc(O)c2)cn1
5,79 to 82,CC(=O)Oc1ccccc1NC(=O)CBr
6,60 to 61,Cc1cccc(C#Cc2cccc(Br)c2)n1
7,94,O=C(CCCl)Nc1ccc(F)c(Cl)c1
8,209 to 211,COc1ccccc1-c1cncc(OC2SCC(O)C(O)C2O)c1 (centres undefined)
9,124 to 126,CC(C)N1CCC(C2c3ccccc3C=Cc3ccccc32)CC1
10,178 to 180,CC(=O)C(=O)NCc1nnc(C)n1-c1cc(Cl)cc(C(=O)c2ccccc2Cl)c1
11,266 to 268,CC1CCN(c2c(F)cc3c(=O)c(C(=O)O)cn4c3c2CCC4C)CC1 (centres undefined)
12,223,Cc1ccc2c(c1)C=Cc1cc(C)ccc1C2c1cn(-c2ccnc(NCC(=O)Nc3nc(CC(=O)O)cs3)n2)c(=O)[nH]c1=O
13,142 to 144,Cc1cc(=O)c2c(OCCOc3ccccc3)cccc2o1
14,95 to 100,CCOC(=O)C=C(c1ccc(I)cc1)c1ccc(I)cc1
15,61 to 64,CC(N)c1ccc2c(c1)N(C(=O)OC(C)(C)C)CCC2 (centres undefined)
16,102 to 103,OC1CCCCc2cc(OCC3CCCCC3)ccc21 (centres undefined)
17,174 to 175,CCCn1c(=O)c(-c2ccccc2)c2n(c1=O)C=CCS2=O (centres undefined)
18,70 to 71.5,Nc1c(Cl)cc(C(O)CNCCCCCOCCc2ccccc2)cc1C(F)(F)F (centres undefined)
19,128,CN(C(=O)N[C@@H](Cc1ccc(Oc2nccc3ccncc23)cc1)C(=O)O)c1ccccc1Cc1ccccc1

row,melting point [°C],Structure (SMILES)
1,207,O=C(O)C1=Cc2cc(Cl)c(Oc3ccc(Cl)c(F)c3)cc2OC1C(F)(F)F (centres undefined)
2,75 to 80,CC1(c2ccc(C(O)C(C)(C)C)cc2)OCCO1 (centres undefined)
3,141 to 142,CC[C@@H](NC(=O)N1CC(=O)NCC(Cc2cc(Cl)ccc2OC)C1=O)C(=O)Nc1nnn[nH]1 (some centres undefined)
4,> 300,COc1cc2ncc(C#N)c(Nc3ccc4c(C)cc(=O)[nH]c4c3)c2cc1OC
5,149 to 150,CCCCCS(=O)(=O)NC(=O)c1ccc2nc(C)n(Cc3ccc(N(C)C(=O)OCC)cc3Cl)c2n1
6,108 to 109,Cc1ccccc1OCCCN1CCC(C(O)(c2ccc(F)cc2)c2ccc(F)cc2)CC1
7,65 to 68,COC(=O)CSCNC(=O)c1ccccc1
8,130 to 135,N#Cc1cccc(OC2SCC(O)C(O)C2O)c1 (centres undefined)
9,187 to 188,Cc1c(C#N)c(-c2ccc(C#N)cc2)c(C)n1Cc1cnc(Cl)c(COC(=O)CCC(=O)O)c1
10,137 to 142,CCCCCCCCCCC(O)CNCCNCC(O)CCCCCCCCCC (centres undefined)
11,110 to 112,O=C(/C=C/C=C(c1ccccc1C(F)(F)F)c1ccccc1C(F)(F)F)NCCCCc1cccnc1
12,161 to 163,N#CC(C=O)c1ccccc1 (centres undefined)
13,58 to 69,CCC1(C)CC(O)CC(C)(C)N1OC(C)c1ccccc1 (centres undefined)
14,125 to 126,CNC(=S)C1=CC(CF)(CF)Oc2ccc(C(F)(F)C(F)(F)C(F)(F)F)cc21
15,135,Cc1cc(C(=O)O)ccc1Cc1cc2cc(C(F)(F)F)ccc2n1S(=O)(=O)c1cccc(C(C)(C)C)c1
16,129,Cc1c(C=O)c2ccccc2n1C
17,103 to 105,COC(=O)C(=O)Oc1cc(-n2c(=O)cc(C(F)(F)F)n(C)c2=O)c(F)cc1Cl
18,127 to 128,CCOC(=O)c1cc(-c2ccc(OC)cc2)nn(CC=Cc2ccc(Cl)cc2)c1=O

row,Structure (SMILES),melting point [°C]
1,COc1ccc(Cc2cnc(N[N+](=O)[O-])[nH]c2=O)cn1,184 to 186
2,NC1C(=O)N(CC2C3CC4CC(C3)CC2C4)c2ccccc2N(c2ccccc2)C1=O (centres undefined),209 to 210
